Test results from US7671201B2, “Phenyl substituted cyclic derivatives” (priority 2003, dated 2010).

System: tobacco budworm (Heliothis virescens [Fabricius])
Details: 0.25 millimolar on the surface of the diet, second instar larvae, five-day exposure; for Percent Mortality: compared to total number of insects infested; for Percent Growth Inhibition: inhibition of insect weight relative to untreated controls
Experimental: Candidate insecticides were evaluated for activity against the tobacco budworm (Heliothis virescens [Fabricius]) in a surface-treated diet test.
In this test one mL of molten (65-70° C.) wheat germ-based artificial diet was pipetted into each well of a four by six (24 well) multi-well plate (ID#430345-15.5 mm dia.×17.6 mm deep; Corning Costar Corp., One Alewife Center, Cambridge, Mass. 02140). The diet was allowed to cool to ambient temperature before treatment with candidate insecticide.
The robot subsequently pipetted 40 microliters of the so-prepared solution onto the surface of the diet in each of three wells in the 24 multi-well plate. The process was repeated with solutions of seven other candidate insecticides. […] Appropriate untreated controls containing only DMSO on the diet surface were also included in this test.
For evaluations of the insecticidal activity of a candidate insecticide at varying rates of application, the test was established as described above using sub-multiples of the standard 50 millimolar DMSO solution of candidate insecticide. […] In these evaluations there were six replicates of each rate of application placed on the surface of the diet in the 24 multi-well plate, for a total of four rates of application of candidate insecticide in each plate.
In each well of the test plate was placed one second instar tobacco budworm larvae, each weighing approximately five milligrams. After the larvae were placed in each well, the plate was sealed with clear polyfilm adhesive tape. The tape over each well was perforated to ensure an adequate air supply. The plates were then held in a growth chamber at 25° C. and 60% relative humidity for five days (light 14 hours/day).
After the five-day exposure period insecticidal activity for each rate of application of candidate insecticide was assessed as percent inhibition of insect weight relative to the weight of insects from untreated controls, and percent mortality when compared to the total number of insects infested.

tert-butyl 4-{[4-(3,3-dichloroprop-2-enyloxy)-2,6-dichlorophenoxy]methyl}piperidinecarboxylate [Compound 4]
Percent Mortality: 100% | Percent Growth Inhibition: 100%

2-{2-[3,4-dichlorophenyl)piperazinyl]ethoxy}-5-(3,3-dichloroprop-2-enyloxy)-1,3-dichlorobenzene [Compound 20]
Percent Mortality: 100% | Percent Growth Inhibition: 100%

O=S(=O)(c1ccc(C(F)(F)F)cc1)N1CCN(c2c(Cl)cc(OCC=C(Cl)Cl)cc2Cl)CC1 [Compound 26, 5-(3,3-dichloroprop-2-enyloxy)-1,3-dichloro-2-{4-[4-(trifluoromethyl)phenylsulfonyl]piperazinyl}benzene]
Percent Mortality: 100% | Percent Growth Inhibition: 100%

OC1(c2ccc(Cl)cc2)CCN(CCOc2c(Cl)cc(OCC=C(Cl)Cl)cc2Cl)CC1 [Compound 35, 1-{2-[4-(3,3-dichloroprop-2-enyloxy)-2,6-dichlorophenoxy]ethyl}-4-(4-chlorophenyl)piperidin-4-ol]
Percent Mortality: 100% | Percent Growth Inhibition: 100%
